# Results published in ChEMBL document CHEMBL3507680, “University of Dundee, Gates Library screen for HepG2 cell viability”.
# Assay: Human HepG2 cell viability assay in 384 well format
# Type: toxicity, cell-based
# Set-up: dose 125 nL, time 70.5 hour; concentration not given beside the values
# Conditions: HepG2 cells, read-out: Inhibition
row,Structure (SMILES),cytotoxicity at 70.5 h
1,CCn1cnnc1C1CCN(C(=O)c2ccnc(N(C)C)c2)CC1,-8.14%
2,CN1CCN(Cc2cn3c(n2)CN(CC2CC2)CC3)CC1,-2.8%
3,Cc1ccccc1CN1CCC(CNc2ncnc3c2CCNCC3)C1 (stereo not drawn),1.87%
4,COc1cc(F)ccc1-c1cc(CO)ccn1,-8.15%
5,CN(C)C(=O)COC[C@@]12CCC[C@@H]1CN(C1CCC1)C2,-10.9%
6,COC[C@@]12CC[C@@H](N3CCOCC3)C[C@H]1CCN(c1ncccc1C)C2,-0.155%
7,c1cnc(N2CCN(CCn3ccnc3-c3ccncc3)CC2)nc1,12.5%
8,NC(=O)C1CCN(CC(=O)N(Cc2ccccc2)Cc2nccs2)CC1,-7.45%
9,CCOC(=O)c1nc(CN2CCC(NC(=O)C(C)C)CC2)cs1,-3.69%
10,CN(C)CC1CN(Cc2nnc(C(C)(C)C)o2)CCO1 (stereo not drawn),11.9%
11,COCCOc1ccc(F)cc1NCc1nc2ccccc2n1C,11.4%
12,Cc1cnn(CCNCC(O)c2ccc3c(c2)OCCO3)c1 (stereo not drawn),4.42%
13,O=C(c1cscn1)N1C[C@H]2CN(Cc3nccs3)C[C@H]2C1,-1.36%
14,O=C(N[C@@H]1CN(Cc2cccc3[nH]ccc23)C[C@H]1O)c1cscn1,-4.99%
15,CC(C)=CCN1C[C@@H](C(=O)O)C[C@H](C(=O)Nc2ccc(C)nc2)C1,-8.07%
16,Cc1nc(N)ncc1C(=O)N1CCCC(CCc2ccccc2F)C1 (stereo not drawn),17%
17,Cc1ccc(CN2CCc3nnc(CN4CCCC4=O)n3CC2)s1,-7.74%
18,CN(Cc1noc2c1CCCC2)C(=O)CN1C(=O)CSc2ccccc21,3.41%
19,CCCc1cc(NC2CCc3nc(CC)nn3C2)n2ncnc2n1 (stereo not drawn),-100%
20,CN1[C@H](Cn2cncn2)C[C@@H]2CN(C3CCOCC3)CC[C@@H]21,0.159%
21,COCc1nc2cc(NCc3scnc3C)ccc2o1,-5.1%
22,NC(=O)CN1CCCN(C(=O)Cc2ccc3ccccc3c2)CC1,33.3%
23,CC(CS(C)(=O)=O)N(C(=O)CCc1ccsc1)C1CC1 (stereo not drawn),-4.58%

row,Structure (SMILES),cytotoxicity at 70.5 h
1,COCCn1cncc1Cn1ncc2ccccc2c1=O,-4.19%
2,CCCS(=O)(=O)N1CCCC1c1cccc(N(C)C)c1 (stereo not drawn),-11.2%
3,CS(=O)(=O)NC1CCN(CCOCc2ccccc2)CC1,-6.45%
4,CSc1ccccc1CN1C[C@H]2C(=O)N(CC3CC3)C[C@@]2(C(=O)O)C1,-0.998%
5,O=C(NCCNC(=O)C1Cc2cc(F)ccc2O1)C1CCCCC1 (stereo not drawn),-9.82%
6,Cc1ccc(N2CC[C@@H]3[C@@H](CO[C@H]3CNC(=O)c3ccco3)C2)nn1,-1.79%
7,CC(c1ccc(F)cc1)N1CCN(Cc2nccn2C)CC1 (stereo not drawn),4.48%
8,CS(=O)(=O)NCCNC(=O)NC1(c2ccc(F)cc2)CCCC1,-9.82%
9,Cc1cc(C)nc(C2CCCN2C(=O)c2cnccn2)n1 (stereo not drawn),-2.97%
10,COc1ccc(CCCC(=O)N2CCCC(n3cncn3)C2)cc1 (stereo not drawn),-2.82%
11,CC[C@@H](c1ccccc1)n1c(CCN)n[nH]c1=O,-5.25%
12,CC(CCN1CCCC1=O)NCc1cnc(C2CCC2)s1 (stereo not drawn),-6.2%
13,COCCn1cnc2c(F)cc(Br)cc2c1=O,-3.14%
14,O=C(c1ccnnc1)N1C[C@@H]2CC[C@H](Oc3cccc(F)c3)[C@@H]2C1,-0.575%
15,O=C(Nc1cccc(Cl)c1)c1nn(C2CCS(=O)(=O)C2)c2c1CCCC2 (stereo not drawn),13.9%
16,Cc1nc(CN(C)C2CCN(Cc3nc(C4CC4)no3)C2)no1 (stereo not drawn),-1.35%
17,O=C(c1ccnnc1)N1CCC2(CC1)CC(N1CCOCC1)C2,33.7%
18,Cn1cc(CCNC(=O)NC2CCN(Cc3ccccn3)CC2)cn1,31.9%
19,O=C(NCC(O)c1cccc(F)c1)c1sccc1OC(F)F (stereo not drawn),-3.42%
20,O=C(NCCCn1nc2ccccn2c1=O)Nc1ccccc1Cl,0.153%
21,Cc1nc(C)n(C2CCCN(C(=O)CCOc3cccc(F)c3)C2)n1 (stereo not drawn),-6.19%
22,CCn1cc(CNC2CC(=O)N(CCc3cccc(Cl)c3)C2)cn1 (stereo not drawn),-3.19%
23,Cc1cc(C)n(CC2CCCCN2CC(=O)Nc2c(C)n[nH]c2C)n1 (stereo not drawn),2.06%

row,Structure (SMILES),cytotoxicity at 70.5 h
1,O=C(C1CCOCC1)N1CC[C@H]2C[C@@H](c3ccncn3)O[C@@H]2C1,-8.58%
2,CCCC(C#N)NC(=O)c1sccc1CC (stereo not drawn),-12.4%
3,O=C(NCc1ccco1)[C@@H]1CCO[C@@H]2CCN(c3ncccn3)C[C@H]21,-3.72%
4,CCc1nc(CN2CCCN(C(=O)c3ccccc3)CC2)cs1,-1.48%
5,Cc1cc(C(=O)Nc2ccnc(OC3CCOC3)c2)c(C)o1 (stereo not drawn),-1.8%
6,CN(C)c1nc2c(c(=O)[nH]1)CCN(C(=O)c1c[nH]c(=O)c(Cl)c1)C2,-0.451%
7,CC(C)CO[C@@H]1CC[C@H]2[C@H]1OCCN2S(=O)(=O)C1CC1,12.4%
8,CC(NC(=O)c1ccc(CS(C)(=O)=O)o1)c1ccc(F)c(F)c1 (stereo not drawn),-3.42%
9,CCc1nccn1CC(=O)Nc1cccc(N2CCCC2)c1,9.22%
10,COc1ccccc1C1(O)CCCN(C(=O)c2ccnn2C(C)C)C1 (stereo not drawn),-1.5%
11,CC(=O)N(Cc1noc(C)n1)C1CCN(CC(=O)N(C)C2CC2)C1 (stereo not drawn),-2.89%
12,Cc1ccc(-c2nc(CNC3CCc4ncnn4C3)co2)cc1 (stereo not drawn),-9.15%
13,c1c[nH]c2nc(C3CCNC3)nc-2c1 (stereo not drawn),-17.5%
14,CN(Cc1cccc(C#N)c1)S(=O)(=O)N1CCOCC1,-9.82%
15,CCN(CC(=O)NC(C)C)S(=O)(=O)N1CCC(C)C1 (stereo not drawn),-6.99%
16,CCCc1cc(C(=O)N2Cc3ccccc3C2)[nH]n1,6.06%
17,CCc1cc(NCCCOC2CCCC2)ncn1,-10.7%
18,O=C(O)c1cccnc1CN1CCCCC1CCc1ccccn1 (stereo not drawn),-14.4%
19,O=C(NC1CC(F)(F)C1)[C@]12COC[C@H]1CN(Cc1ccccc1)C2,-9.36%
20,C=Cn1cc(CN2CCN(CC3(c4ccccc4)CC3)CC2)c(C)n1,-2.78%
21,CC(C)c1nc(CN2CCC(CO)CC2)cs1,34.5%
22,CC(C1CC1)n1nccc1NC(=O)CN(C)C(=O)OC(C)(C)C (stereo not drawn),27.9%
23,Cc1noc(C2CCN(C(=O)CCc3ccccn3)CC2)n1,-4.44%

row,Structure (SMILES),cytotoxicity at 70.5 h
1,c1ccc2sc(N3CCN(c4ncnc5c4CCC5)CC3)nc2c1,13.8%
2,O=C(O)c1cn(CC2CCCN(c3nc4ccccc4s3)C2)nn1 (stereo not drawn),20.3%
3,CC/C=C(\C)CN1CCC(CNC(=O)c2ccnc(N)c2)C1 (stereo not drawn),15%
4,CCn1cc(CNC(=O)CCc2nnc(-c3ccc(C)s3)o2)cn1,10%
5,COc1ccc(C(=O)C2CCCN(CCCn3cccn3)C2)c(OC)c1 (stereo not drawn),20.9%
6,Cc1nc(CN2CCN(C(=O)CCC(=O)c3ccccc3)CC2)no1,12.6%
7,O=C(NS(=O)(=O)c1cccc(C(F)(F)F)c1)c1cnsn1,-5.69%
8,CN(C)CCOCC1CN(CCN(C)C)Cc2ccnn2C1 (stereo not drawn),-10.7%
9,Cc1cnn(Cc2cc(F)ccc2F)c1NC(=O)C1CCOCC1,1.07%
10,CCN(C)C1CCCc2nc(C)sc21 (stereo not drawn),-5.07%
11,CN(C)Cc1ccnc(C2CCCN2Cc2ccc3ncccc3c2)n1 (stereo not drawn),1.4%
12,CN(C)C(=O)N1C[C@@H]2CC[C@H](C1)N(C(=O)c1c(Cl)cccc1Cl)C2,-13.7%
13,O=C(CC1CCCO1)N1CCCN(c2cccnn2)CC1 (stereo not drawn),-3.32%
14,O=C(NCC(F)F)c1ccc(S(=O)(=O)NCCc2cn[nH]c2)cc1,-8.61%
15,COCC(=O)N(C)Cc1ccc(Cl)c(Cl)c1,-12.6%
16,COCCn1cc(CC(=O)Nc2nc3c(s2)CCC3)c2ccccc21,-6.21%
17,CCOCC1CN(C(=O)[C@H]2CCCO2)Cc2nnn(CC3CC3)c21 (stereo partly drawn),-1.02%
18,O=C(Cn1cnc2cc3c(cc21)OCCCO3)NCCc1ccccc1,0.395%
19,COCCCn1ccnc1-c1cnc(OC)nc1,-9.97%
20,CCCc1n[nH]c(C2CN(C(=O)C3=COCCC3)CCO2)n1 (stereo not drawn),-16.3%
21,Cc1oncc1C(=O)NCc1cc(=O)n2c(n1)CN(CC(C)C)CCC2,22.7%
22,COCc1c(C(=O)O)nnn1Cc1cccc(C(F)(F)F)c1,-18.5%
23,Cc1cnn(CC2CCCN2Cc2noc(C(C)C)n2)c1 (stereo not drawn),-5.54%

row,Structure (SMILES),cytotoxicity at 70.5 h
1,COCCNS(=O)(=O)c1cccc2c1CN(C(=O)c1ccccc1)CC2,14.6%
2,Cc1nc2c(c(N3CCC(O)(CN4CCCC4)CC3)n1)CCNCC2,-3.88%
3,Cc1cc(CN2CCC(CNS(=O)(=O)c3ccccc3F)CC2)c(C)o1,37.7%
4,CCCS(=O)(=O)N1CCN(CCOC)c2nc(C)ccc2C1,-8.9%
5,CCC1CN(C(=O)COc2ccc(C(=O)NC3CC3)cc2)CCO1 (stereo not drawn),-2.32%
6,CN(CC(=O)NC1(C)CCS(=O)(=O)C1)Cc1ccc(F)c(F)c1 (stereo not drawn),3.42%
7,O[C@H]1CN(Cc2cc3ccccc3o2)CC[C@@]12CCCO2,-8.98%
8,CC(C)CN1C(=O)C2(CCN(Cc3ccoc3)C2)c2ccccc21 (stereo not drawn),-14.2%
9,CC(C)Cc1cc(C(=O)N2CCCN(c3cccnn3)CC2)[nH]n1,-5.32%
10,COc1ccc(F)c(-c2nccn2CCN2CCCC2)c1,33.7%
11,O=S(=O)(NCc1ccccc1)N(Cc1ccccn1)CC1CCCO1 (stereo not drawn),-2.95%
12,c1c(CN2CCOCC2)nc2n1CCN(CC1CC1)C2,-3.69%
13,NC(=O)CN1CCN(C(=O)c2cc(Cl)cc3cccnc23)CC1,19.4%
14,CCc1nnc(CN2CCC(C3CCCCCN3C(=O)C3CC3)CC2)o1 (stereo not drawn),-1.17%
15,Cc1cc(NC(=O)N(C)C2CCN(c3ccccc3F)C2=O)n(C)n1 (stereo not drawn),-0.35%
16,O=C(c1ccnc(C2CCNCC2)c1)N1CCCC(CO)C1 (stereo not drawn),-2.32%
17,CC(NC(=O)c1ccc(Cl)cc1)c1nnc(SCC(N)=O)n1C (stereo not drawn),-8%
18,NC(=O)c1cccc(OCC(=O)NS(=O)(=O)c2ccc3c(c2)CCC3)c1,-0.191%
19,CN(C)C(=O)N1CCN(c2cc(N3CCCC3CO)ncn2)CC1 (stereo not drawn),-4.25%
20,Cn1cnc(S(=O)(=O)N2CCCCc3ccccc32)c1,1.57%
21,c1ccc(-c2cccc(-c3ccn(CCN4CCCCC4)n3)c2)nc1,13.3%
